Here are results for 38 molecules from patent US7781591B2, “Substituted 3-cyanopyridines as protein kinase inhibitors” (Wyeth LLC, priority 2006, dated 2010).

The target of this test is T1, human PKCθ full length enzyme (Homo sapiens, UniProt Q04759).
T1 construct: human PKCθ full length enzyme (Panvera Cat# P2996); purchased Panvera P2996
The test is described as follows: PKCθ IMAP assay (fluorescence polarization). The format is biochemical. The following applies: human PKCθ full length enzyme, IMAP; average value; read-out: IC50 PKCθ IMAP. (Fluorescence polarisation rises when a labelled molecule tumbles more slowly, as on binding a larger partner.)

T1 sequence (Q04759 whole entry): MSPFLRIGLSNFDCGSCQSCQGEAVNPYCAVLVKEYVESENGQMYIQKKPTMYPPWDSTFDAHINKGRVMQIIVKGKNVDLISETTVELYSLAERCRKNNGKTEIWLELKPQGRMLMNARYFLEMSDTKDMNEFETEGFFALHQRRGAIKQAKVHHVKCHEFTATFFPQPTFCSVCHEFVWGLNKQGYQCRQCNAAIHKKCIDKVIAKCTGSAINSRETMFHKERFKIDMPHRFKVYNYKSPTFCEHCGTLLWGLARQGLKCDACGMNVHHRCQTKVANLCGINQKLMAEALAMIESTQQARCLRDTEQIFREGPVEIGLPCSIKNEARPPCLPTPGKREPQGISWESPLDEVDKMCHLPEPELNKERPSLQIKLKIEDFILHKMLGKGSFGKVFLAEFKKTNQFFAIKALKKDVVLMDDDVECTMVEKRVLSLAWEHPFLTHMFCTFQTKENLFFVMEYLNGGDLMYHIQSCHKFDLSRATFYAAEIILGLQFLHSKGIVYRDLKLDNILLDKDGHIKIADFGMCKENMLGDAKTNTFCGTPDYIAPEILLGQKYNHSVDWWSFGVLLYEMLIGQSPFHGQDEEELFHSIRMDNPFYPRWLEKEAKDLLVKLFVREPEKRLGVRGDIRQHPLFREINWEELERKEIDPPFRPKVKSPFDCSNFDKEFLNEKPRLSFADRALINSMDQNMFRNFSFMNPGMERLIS

A word on the IC50: it is the concentration at which inhibition is half-maximal. Consider `Cc1ccc(S(=O)(=O)n2cc(-c3cncc(C#N)c3Nc3cccc4[nH]ccc34)c3ccccc32)cc1` [Compound 320, 4-(1H-indol-4-ylamino)-5-{1-[(4-methylphenyl)sulfonyl]-1H-indol-3-yl}nicotinonitrile], for which the IC50 was determined as 30 nM.

Take `N#Cc1cncc(-c2cc3ccccc3s2)c1Nc1cccc2[nH]ccc12` [Compound 322, 5-(1-benzothien-2-yl)-4-(1H-indol-4-ylamino)nicotinonitrile]: the IC50 worked out at 20 nM.

Turning to `COc1ccc(-c2cncc(C#N)c2Nc2cccc3[nH]ccc23)cc1` [Compound 323, 4-(1H-indol-4-ylamino)-5-(4-methoxyphenyl)nicotinonitrile], the IC50 stood at 20 nM.

On to `COc1ccccc1-c1cncc(C#N)c1Nc1cccc2[nH]ccc12` [Compound 324, 4-(1H-indol-4-ylamino)-5-(2-methoxyphenyl)nicotinonitrile], for which the IC50 came out at 20 nM.

With `N#Cc1cncc(-c2cc3ccccc3[nH]2)c1Nc1cccc2[nH]ccc12` [Compound 325, 5-(1H-indol-2-yl)-4-(1H-indol-4-ylamino)nicotinonitrile], the IC50 was determined as 60 nM.

For the molecule `CN(C)S(=O)(=O)c1ccc(-c2cncc(C#N)c2Nc2cccc3[nH]ccc23)cc1` [Compound 326, 4-[5-cyano-4-(1H-indol-4-ylamino)pyridin-3-yl]-N,N-dimethylbenzenesulfonamide], the IC50 stood at 190 nM.

Turning to `N#Cc1cncc(-c2cccc(C(=O)O)c2)c1Nc1cccc2[nH]ccc12` [Compound 327, 3-[5-cyano-4-(1H-indol-4-ylamino)pyridin-3-yl]benzoic acid], the IC50 was determined as 120 nM.

For the molecule `N#Cc1cncc(-c2cccc(CN)c2)c1Nc1cccc2[nH]ccc12` [Compound 328, 5-[3-(aminomethyl)phenyl]-4-(1H-indol-4-ylamino)nicotinonitrile], the IC50 came to 20 nM.

As to `COc1ccc(-c2cncc(C#N)c2Nc2cccc3c2CC(=O)N3)cc1OC` [Compound 329, 5-(3,4-dimethoxyphenyl)-4-[(2-oxo-2,3-dihydro-1H-indol-4-yl)amino]nicotinonitrile], the IC50 turned out to be 8210 nM.

Consider `COCCNC(=O)c1ccc(-c2cncc(C#N)c2Nc2cccc3[nH]ccc23)cc1` [Compound 330, 4-[5-cyano-4-(1H-indol-4-ylamino)pyridin-3-yl]-N-(2-methoxyethyl)benzamide], for which the IC50 stood at 130 nM.

In the case of `N#Cc1cncc(-c2ccc(OCCCl)cc2)c1Nc1cccc2[nH]ccc12` [Compound 332, 5-[4-(2-chloroethoxy)phenyl]-4-(1H-indol-4-ylamino)nicotinonitrile], the IC50 amounted to 8 nM.

As to `N#Cc1cncc(-c2ccc(OCCN3CCOCC3)cc2)c1Nc1cccc2[nH]ccc12` [Compound 334, 4-(1H-indol-4-ylamino)-5-[4-(2-morpholin-4-ylethoxy)phenyl]nicotinonitrile], the IC50 stood at 30 nM.

Turning to `CN1CCN(CCOc2ccc(-c3cncc(C#N)c3Nc3cccc4[nH]ccc34)cc2)CC1` [Compound 335, 4-(1H-indol-4-ylamino)-5-{4-[2-(4-methylpiperazin-1-yl)ethoxy]phenyl}nicotinonitrile], the IC50 is 10 nM.

Consider `COc1ccc(-c2cncc(C#N)c2Nc2c(C)ccc3[nH]ccc23)cc1OC` [Compound 336, 5-(3,4-dimethoxyphenyl)-4-[(5-methyl-1H-indol-4-yl)amino]nicotinonitrile], for which the IC50 worked out at 200 nM.

On to `COc1ccc(-c2cncc(C#N)c2Nc2cccc3[nH]ccc23)cc1OCCNCCCN1CCCC1=O` [Compound 338, 4-(1H-indol-4-ylamino)-5-[4-methoxy-3-(2-{[3-(2-oxopyrrolidin-1-yl)propyl]amino}ethoxy)phenyl]nicotinonitrile], for which the IC50 is 8 nM.

For `COc1ccc(-c2cncc(C#N)c2Nc2cccc3[nH]ccc23)cc1OCCNCCc1c[nH]cn1` [Compound 339, 5-[3-(2-{[2-(1H-imidazol-4-yl)ethyl]amino}ethoxy)-4-methoxyphenyl]-4-(1H-indol-4-ylamino)nicotinonitrile], the IC50 worked out at 10 nM.

For the molecule `COc1ccc(-c2cncc(C#N)c2Nc2ccc3[nH]ccc3c2C)cc1OCCNCCCc1ccccc1` [Compound 342, 5-(4-methoxy-3-{2-[(3-phenylpropyl)amino]ethoxy}phenyl)-4-[(4-methyl-1H-indol-5-yl)amino]nicotinonitrile], the IC50 was determined as 1 nM.

As to `COc1ccc(-c2cncc(C#N)c2Nc2ccc3[nH]ccc3c2C)cc1OCCN1CCN(C)CC1` [Compound 343, 5-{4-methoxy-3-[2-(4-methylpiperazin-1-yl)ethoxy]phenyl}-4-[(4-methyl-1H-indol-5-yl)amino]nicotinonitrile], the IC50 came to 10 nM.

On to `COc1cc(-c2cncc(C#N)c2Nc2ccc3[nH]ccc3c2C)ccc1OCCNCCCc1ccccc1` [Compound 344, 5-(3-methoxy-4-{2-[(3-phenylpropyl)amino]ethoxy}phenyl)-4-[(4-methyl-1H-indol-5-yl)amino]nicotinonitrile], for which the IC50 worked out at 8 nM.

As for `COc1cc(-c2cncc(C#N)c2Nc2ccc3[nH]ccc3c2C)ccc1OCCN(C)C` [Compound 345, 5-{4-[2-(dimethylamino)ethoxy]-3-methoxyphenyl}-4-[(4-methyl-1H-indol-5-yl)amino]nicotinonitrile], the IC50 is 7 nM.

In the case of `N#Cc1cncc(-c2cccc(Br)c2)c1Nc1cccc2c1CC(=O)N2` [Compound 346, 5-(3-bromophenyl)-4-[(2-oxo-2,3-dihydro-1H-indol-4-yl)amino]nicotinonitrile], the IC50 came out at 540 nM.

`Cc1c(Nc2c(C#N)cncc2-c2ccc(OCCCl)cc2)ccc2[nH]ccc12` [Compound 348, 5-[4-(2-chloroethoxy)phenyl]-4-[(4-methyl-1H-indol-5-yl)amino]nicotinonitrile]: the IC50 worked out at 4 nM.

With `COc1ccc(-c2cncc(C#N)c2Nc2cccc3[nH]c(C)cc23)cc1OC` [Compound 349, 5-(3,4-dimethoxyphenyl)-4-[(2-methyl-1H-indol-4-yl)amino]nicotinonitrile], the IC50 was 130 nM.

`Cc1c(Nc2c(C#N)cncc2-c2ccc(OCCN3CCN(C)CC3)cc2)ccc2[nH]ccc12` [Compound 350, 4-[(4-methyl-1H-indol-5-yl)amino]-5-{4-[2-(4-methylpiperazin-1-yl)ethoxy]phenyl}nicotinonitrile]: the IC50 was determined as 8 nM.

`Cc1c(Nc2c(C#N)cncc2-c2ccc(OCCN3CCOCC3)cc2)ccc2[nH]ccc12` [Compound 351, 4-[(4-methyl-1H-indol-5-yl)amino]-5-[4-(2-morpholin-4-ylethoxy)phenyl]nicotinonitrile]: the IC50 was determined as 20 nM.

For the molecule `COc1ccc(-c2cncc(C#N)c2Nc2cccc3[nH]ccc23)cc1OCCNCCc1ccccc1` [Compound 353, 4-(1H-indol-4-ylamino)-5-(4-methoxy-3-{2-[(2-phenylethyl)amino]ethoxy}phenyl)nicotinonitrile], the IC50 amounted to 1 nM.

Consider `COc1ccc(-c2cncc(C#N)c2Nc2cccc3[nH]ccc23)cc1OCCNCCc1cccnc1` [Compound 354, 4-(1H-indol-4-ylamino)-5-(4-methoxy-3-{2-[(2-pyridin-3-ylethyl)amino]ethoxy}phenyl)nicotinonitrile], for which the 50% inhibitory concentration (IC50) was determined as 4 nM.

Consider `Cc1c(Nc2c(C#N)cncc2-c2ccc(OCCNCCCc3ccccc3)cc2)ccc2[nH]ccc12` [Compound 355, 4-[(4-methyl-1H-indol-5-yl)amino]-5-(4-{2-[(3-phenylpropyl)amino]ethoxy}phenyl)nicotinonitrile], for which the IC50 stood at 3 nM.

On to `CN(C)CCCOc1ccc(-c2cncc(C#N)c2Nc2cccc3[nH]ccc23)cn1` [Compound 356, 6′-[3-(dimethylamino)propoxy]-4-(1H-indol-4-ylamino)-3,3′-bipyridine-5-carbonitrile], for which the IC50 was found to be 40 nM.

As for `Cc1c(Nc2c(C#N)cncc2-c2ccc(OCCCN(C)C)nc2)ccc2[nH]ccc12` [Compound 357, 6′-[3-(dimethylamino)propoxy]-4-[(4-methyl-1H-indol-5-yl)amino]-3,3′-bipyridine-5-carbonitrile], the IC50 was determined as 30 nM.

`N#Cc1cncc(-c2cccc(O)c2)c1Nc1cccc2[nH]ccc12` [Compound 358, 5-(3-hydroxyphenyl)-4-(1H-indol-4-ylamino)nicotinonitrile]: the IC50 worked out at 10 nM.

As for `N#Cc1cncc(-c2cc3cc(CN4CCNCC4)ccc3s2)c1Nc1cccc2[nH]ccc12` [Compound 359, 4-(1H-indol-4-ylamino)-5-[5-(piperazin-1-ylmethyl)-1-benzothien-2-yl]nicotinonitrile], the concentration for half-maximal inhibition (IC50) was 20 nM.

As to `N#Cc1cncc(-c2cc3cc(CNC(=O)CCN)ccc3s2)c1Nc1cccc2[nH]ccc12` [Compound 360, N-({2-[5-cyano-4-(1H-indol-4-ylamino)pyridin-3-yl]-1-benzothien-5-yl}methyl)-b-alaninamide], the IC50 came out at 2 nM.

On to `N#Cc1cncc(-c2ccc(NCCN3CCOCC3)nc2)c1Nc1cccc2[nH]ccc12` [Compound 361, 4-(1H-indol-4-ylamino)-6′-[(2-morpholin-4-ylethyl)amino]-3,3′-bipyridine-5-carbonitrile], for which the IC50 is 40 nM.

For the molecule `Cc1c(Nc2c(C#N)cncc2-c2ccc(NCCN3CCOCC3)nc2)ccc2[nH]ccc12` [Compound 362, 4-[(4-methyl-1H-indol-5-yl)amino]-6′-[(2-morpholin-4-ylethyl)amino]-3,3′bipyridine-5-carbonitrile], the IC50 was found to be 50 nM.

With `Cc1c(Nc2c(C#N)cncc2-c2ccc(OCCN(C)C)cc2Cl)ccc2[nH]ccc12` [Compound 363, 5-{2-chloro-4-[2-(dimethylamino)ethoxy]phenyl}-4-[(4-methyl-1H-indol-5-yl)amino]nicotinonitrile], the IC50 was found to be 20 nM.

Take `COc1ccc(-c2cncc(C#N)c2Nc2cccc3[nH]ccc23)cc1OCCNCCCN1CCOCC1` [Compound 364, 4-(1H-indol-4-ylamino)-5-(4-methoxy-3-{2-[(3-morpholin-4-ylpropyl)amino]ethoxy}phenyl)nicotinonitrile]: the IC50 stood at 10 nM.

Regarding `COc1ccc(-c2cncc(C#N)c2Nc2cccc3[nH]ccc23)cc1OCCNCCCn1ccnc1` [Compound 365, 5-[3-(2-{[3-(1H-imidazol-1-yl)propyl]amino}ethoxy)-4-methoxyphenyl]-4-(1H-indol-4-ylamino)nicotinonitrile], the IC50 is 4 nM.
